In ChEMBL document CHEMBL4368923 (J Med Chem, 2019):
≈ marks a conversion by molar mass, not a printed value.

Columns and labels:
[1] = Selectivity index, ratio of CC50 for human MT4 cells to EC50 for HIV1 RES056 harboring reverse transcriptase K103N/Y181C double mutant infected in human MT4 cells
[2] = tested on: Human immunodeficiency virus 1; assay: Antiviral activity against HIV1 3B infected in human MT4 cells assessed as inhibition of virus-induced cytotoxicity after 5 days by MTT assay; assay type: functional, organism-based; settings: Human immunodeficiency virus 1, 3B, MT4, 120 h
[3] = Selectivity index, ratio of CC50 for human MT4 cells to EC50 for HIV1 3B infected in human MT4 cells
[4] = tested on: Human immunodeficiency virus 1; assay: Antiviral activity against HIV1 RES056 harboring reverse transcriptase K103N/Y181C double mutant infected in human MT4 cells assessed as inhibition of virus-induced cytotoxicity after 5 days by MTT assay; assay type: functional, organism-based; settings: Human immunodeficiency virus 1, RES056, MT4, 120 h
[5] = biological target: Human immunodeficiency virus type 1 reverse transcriptase (Human immunodeficiency virus 1, UniProt Q72547); assay: Inhibition of HIV1 reverse transcriptase p66/p51 using poly(rA)/oligo(dT)16 as template/primer measured after 40 mins by pico-green based spectrofluorometric analysis
[6] = Cytotoxicity against human MT4 cells assessed as reduction in cell viability after 5 days by MTT assay; assay type: cell-based
[7] = tested on: Human immunodeficiency virus 1; assay: Antiviral activity against HIV1 harboring reverse transcriptase Y188L mutant infected in human MT4 cells assessed as inhibition of virus-induced cytotoxicity after 5 days by MTT assay; assay type: functional, organism-based; settings: Human immunodeficiency virus 1, MT4, 120 h
[8] = tested on: Human immunodeficiency virus 1; assay: Antiviral activity against HIV1 harboring reverse transcriptase L100I mutant infected in human MT4 cells assessed as inhibition of virus-induced cytotoxicity after 5 days by MTT assay; assay type: functional, organism-based; settings: Human immunodeficiency virus 1, MT4, 120 h
[9] = tested on: Human immunodeficiency virus 1; assay: Antiviral activity against HIV1 harboring reverse transcriptase E138K mutant infected in human MT4 cells assessed as inhibition of virus-induced cytotoxicity after 5 days by MTT assay; assay type: functional, organism-based; settings: Human immunodeficiency virus 1, MT4, 120 h
[10] = tested on: Human immunodeficiency virus 1; assay: Antiviral activity against HIV1 harboring reverse transcriptase K103N mutant infected in human MT4 cells assessed as inhibition of virus-induced cytotoxicity after 5 days by MTT assay; assay type: functional, organism-based; settings: Human immunodeficiency virus 1, MT4, 120 h
[11] = tested on: Human immunodeficiency virus 1; assay: Antiviral activity against HIV1 harboring reverse transcriptase Y181C mutant infected in human MT4 cells assessed as inhibition of virus-induced cytotoxicity after 5 days by MTT assay; assay type: functional, organism-based; settings: Human immunodeficiency virus 1, MT4, 120 h
[12] = tested on: Human immunodeficiency virus 1; assay: Antiviral activity against HIV1 harboring reverse transcriptase F227L/V106A double mutant infected in human MT4 cells assessed as inhibition of virus-induced cytotoxicity after 5 days by MTT assay; assay type: functional, organism-based; settings: Human immunodeficiency virus 1, MT4, 120 h
[13] = Solubility of the compound in deionized water at pH 7
[14] = Solubility in water at pH 7; assay type: physicochemical

| SMILES | selectivity ratio ([1]; MT4 cells) | EC50 ([2]; read-out: EC50) [µM] | selectivity ratio ([3]; MT4 cells) | EC50 [4] [µM] | IC50 [5] [µM] | EC50 ([2]; read-out: pEC50 (converted)) [µM] | CC50 at 120 h [6] [µM] | EC50 [7] [µM] | EC50 [8] [µM] | EC50 [9] [µM] | EC50 [10] [µM] | EC50 [11] [µM] | EC50 [12] [µM] | solubility [13] [µg/mL] | solubility [14] [µg/mL] | selectivity ratio [1] | selectivity ratio [3] |
| --- | --- | --- | --- | --- | --- | --- | --- | --- | --- | --- | --- | --- | --- | --- | --- | --- | --- |
| Cc1cc(C#N)cc(C)c1Oc1cc(Cl)nc(Nc2ccc(CN3CCOCC3)cc2)c1 | < 1 | 0.93 | 7 | > 6.9 | – | – | – | – | – | – | – | – | – | – | – | – | – |
| Cc1cc(C)c(Oc2nc(N)nc(Nc3ccc(CN4CCOCC4)cc3)n2)c(C)c1 | 1 | 0.12 | ≥ 105 | > 12.9 | 0.442 | 0.12 | ≥ 12.9 | – | – | – | – | – | – | – | – | – | – |
| Cc1cc(C#N)cc(C)c1Oc1ccnc(Nc2ccc(CN3CCN(S(C)(=O)=O)CC3)cc2)n1 | < 1 | 0.0072 | 475 | > 3.43 | 0.049 | 0.00724 | 3.43 | > 5.22 | 0.11 | 0.089 | 0.23 | 0.47 | 1.03 | – | – | – | – |
| Cc1cc(C#N)cc(C)c1Oc1ccnc(Nc2ccc(CN3CCC(NC(=O)OC(C)(C)C)CC3)cc2)n1 | < 1 | 0.2 | 21 | > 4.34 | 0.413 | 0.2 | 4.34 | – | – | – | – | – | – | – | – | – | – |
| Cc1cc(C#N)cc(C)c1Oc1ccnc(Nc2ccc(CN3CCC(NS(N)(=O)=O)CC3)cc2)n1 | < 1 | 0.092 | 40 | > 3.72 | 0.152 | 0.0912 | 3.72 | > 6.97 | 2.15 | 0.45 | 0.5 | 6.54 | ≥ 6.82 | – | – | – | – |
| Cc1cc(C#N)cc(C)c1Oc1ccnc(Nc2ccc(CN3CCOCC3)cc2)n1 | < 1 | 0.011 | 2040 | > 23 | 0.042 | 0.011 | 23 | 4.93 | 0.41 | 0.14 | 0.068 | 0.91 | 1.8 | 33.4 (≈ 80.4 µM) | – | – | – |
| Cc1cc(/C=C/C#N)cc(C)c1Oc1ccnc(Nc2ccc(CN3CCC(NC(=O)OC(C)(C)C)CC3)cc2)n1 | < 1 | 0.026 | 138 | > 3.55 | 0.499 | 0.0257 | 3.55 | > 4.27 | 0.28 | 0.15 | 0.068 | 0.57 | ≥ 1.14 | – | – | – | – |
| Cc1cc(C#N)cc(C)c1Oc1ccnc(Nc2ccc(CNC3CCN(C(=O)OC(C)(C)C)CC3)cc2)n1 | < 1 | 0.19 | 19 | > 3.51 | 0.277 | 0.191 | 3.51 | – | – | – | – | – | – | – | – | – | – |
| Cc1cc(C#N)cc(C)c1Oc1ccnc(Nc2ccc(CN3CCC(NS(C)(=O)=O)CC3)cc2)n1 | < 1 | 0.055 | 331 | > 18.1 | 0.079 | 0.055 | 18.1 | ≥ 7.8 | 0.7 | 0.38 | 0.46 | 2.6 | 3.23 | – | – | – | – |
| Cc1cc(/C=C/C#N)cc(C)c1Oc1ccnc(Nc2ccc(CN3CCN(C(=O)OC(C)(C)C)CC3)cc2)n1 | < 1 | 0.015 | 209 | > 3.04 | 0.297 | 0.0151 | 3.04 | > 4.03 | 0.2 | 0.13 | 0.02 | 0.42 | 0.15 | – | – | – | – |
| Cc1cc(/C=C/C#N)cc(C)c1Oc1ccnc(Nc2ccc(CN3CCC(NS(C)(=O)=O)CC3)cc2)n1 | < 1 | 0.0069 | 1020 | > 6.99 | 0.076 | 0.00692 | 6.99 | 8.35 | 0.13 | 0.036 | 0.025 | 0.33 | 0.47 | – | – | – | – |
| O=C1Nc2ccc(Cl)cc2[C@@](C#CC2CC2)(C(F)(F)F)O1 [EFAVIRENZ] | – | – | – | 0.24 | – | – | > 6.34 | 0.24 | 0.052 | 0.006 | 0.089 | – | 0.27 | – | – | – | – |
| Cc1cc(C#N)cc(C)c1Oc1nc(Nc2ccc(C#N)cc2)nc(N)c1Br [ETRAVIRINE] | – | 0.0035 | – | 0.05 | – | 0.00347 | > 4.59 | 0.027 | 0.0074 | – | 0.0039 | 0.021 | 0.026 | < 1 | < 1 | – | – |
| Nc1ccn([C@@H]2CS[C@H](CO)O2)c(=O)n1 [LAMIVUDINE] | – | 6.41 | > 14 | – | – | – | > 87.2 | – | – | – | – | – | – | – | – | – | – |
| Cc1ccnc2c1NC(=O)c1cccnc1N2C1CC1 [NEVIRAPINE] | – | 0.24 | – | > 15 | – | 0.24 | > 15 | > 15 | 1.64 | – | 10.9 | > 15 | > 15 | – | – | – | – |
| Cc1cc(/C=C/C#N)cc(C)c1Nc1ccnc(Nc2ccc(C#N)cc2)n1 [RILPIVIRINE] | – | 0.0013 | – | – | – | 0.00129 | 4.38 | – | – | – | – | – | – | – | – | – | – |
| Cc1cn([C@H]2C[C@H](N=[N+]=[N-])[C@@H](CO)O2)c(=O)[nH]c1=O [ZIDOVUDINE] | – | – | – | 0.015 | – | – | > 7.48 | 0.0051 | 0.0036 | 0.014 | 0.011 | 0.0056 | 0.0062 | – | – | > 515 | > 704 |
